How the values were obtained:
[1] = biological target: T1, Cav2.1 (P/Q-type) calcium channels (Rattus norvegicus, UniProt P54282); assay: Whole-cell patch-clamp, isolated P/Q-type Ca2+ currents in DRG neurons; format: cell-based
T1 construct: Recordings were obtained from acutely dissociated DRG neurons; endogenous in cells; host or cells: acutely dissociated rat DRG neurons
Protocol: (§1) Recordings were obtained from acutely dissociated DRG neurons as described earlier (Bellampalli et al., 2019). Patch-clamp recordings were performed at room temperature (22-24° C.). Currents were recorded using an EPC 10 Amplifier-HEKA (HEKA Elektronik, Ludwigshafen, Germany) linked to a computer with Patchmaster software. DRG neurons were incubated overnight (˜16-24 hours) with 20 μM of CBD3063.
(§2) For total calcium current (ICa^2+) recordings, the external solution consisted of the following (in mM): 110 N-methyl-D-glucamine, 10 BaCl2, 30 TEA-Cl, 10 HEPES, 10 glucose, and 0.001 TTX (pH 7.29 adjusted with TEA-OH, and mOsm/L=310). Patch pipettes were filled with an internal solution containing (in mM): 150 CsCl2, 10 HEPES, 5 Mg-ATP, and 5 BAPTA, (pH 7.2 adjusted with CsOH, and mOsm/L-305). Peak Ca^2+ current was acquired by applying 200-millisecond voltage steps from −70 to +60 mV in 10-mV increments from a holding potential of −90 mV to obtain the current-voltage (I-V) relation. To measure the different subtypes of Ca^2+ channels, DRGs were treated with a Cav inhibitor cocktail omitting the inhibitor specific to the subtype being tested (e.g., to measure Cav2.2 currents, ω-conotoxin GVIA is omitted): Nifedipine (10 μM, L-type), ω-Conotoxin-GVIA (500 nM, […]) (Feng, et al., 2001), SNX482 (200 nM, R-type) (Newcomb et al., 1998), ω-agatoxin (200 nM, P/Q-type) (Mintz et al., 1992), TTA-P2 (1 μM, T-type) (Choe et al., 2011).
(§3) Normalization of currents to each cell's capacitance (pF) was performed to allow for collection of current density data. For I-V curves, functions were fitted to data using a non-linear least squares analysis. I-V curves were fitted using double Boltzmann functions:
(§4) where x is the pre-pulse potential, V1/2 is the mid-point potential, and k is the corresponding slope factor for single Boltzmann functions. Double Boltzmann fits were used to describe the shape of the curve, not to imply the existence of separate channel populations. Numbers 1 and 2 simply indicate first and second mid-points; a along with g are fitting parameters.
(§5) Activation curves were obtained from the I-V curves by dividing the peak current at each depolarizing step by the driving force according to the equation: G=I/(Vmem-Erev), where I is the peak current, Vmem is the membrane potential and Erev is the reversal potential. The conductance (G) was normalized against the maximum conductance (Gmax). For total and the different subtypes of Ca^2+ currents, steady-state inactivation (SSI) curves were obtained by applying an H-infinity protocol that consisted of 1.5-seconds conditioning pre-pulses from −100 to +30 mV in 10-mV increments followed by a 20-millisecond test pulse to +10 mV. For Na^+ currents, SSI curves were obtained by applying an H-infinity protocol that consisted of 1-second conditioning pre-pulses from −120 to +10 mV in 10-mV increments followed by a 200-millisecond test pulse to +10 mV. Inactivation curves were obtained by dividing the peak current recorded at the test pulse by the maximum current (Imax). Activation and SSI curves were fitted with the Boltzmann equation.

[2] = tested on: Cav3 (T-type) calcium channels; assay: Whole-cell patch-clamp, isolated T-type Ca2+ currents in DRG neurons; format: cell-based, rat
Protocol: as §1, §2, §3, §4, §5

[3] = tested on: Cav1 (L-type) calcium channels; assay: Whole-cell patch-clamp, isolated L-type Ca2+ currents in DRG neurons; format: cell-based, rat
Protocol: as §1, §2, §3, §4, §5

[4] = biological target: T2, Cav2.3 (R-type) calcium channels (Rattus norvegicus, UniProt Q07652); assay: Whole-cell patch-clamp, isolated R-type Ca2+ currents in DRG neurons; format: cell-based
T2 construct: Recordings were obtained from acutely dissociated DRG neurons; endogenous in cells; host or cells: acutely dissociated rat DRG neurons
Protocol: as §1, §2, §3, §4, §5

total Ca2+ currents = assay: Whole-cell patch-clamp, total Ca2+ currents in small-to-medium DRG neurons; format: cell-based, rat; conditions: 20 μM overnight
Protocol: as §1, §2, §3, §4, §5

[5] = 20 μM overnight, mean ± SEM (n cells)

T1 sequence (P54282 whole entry): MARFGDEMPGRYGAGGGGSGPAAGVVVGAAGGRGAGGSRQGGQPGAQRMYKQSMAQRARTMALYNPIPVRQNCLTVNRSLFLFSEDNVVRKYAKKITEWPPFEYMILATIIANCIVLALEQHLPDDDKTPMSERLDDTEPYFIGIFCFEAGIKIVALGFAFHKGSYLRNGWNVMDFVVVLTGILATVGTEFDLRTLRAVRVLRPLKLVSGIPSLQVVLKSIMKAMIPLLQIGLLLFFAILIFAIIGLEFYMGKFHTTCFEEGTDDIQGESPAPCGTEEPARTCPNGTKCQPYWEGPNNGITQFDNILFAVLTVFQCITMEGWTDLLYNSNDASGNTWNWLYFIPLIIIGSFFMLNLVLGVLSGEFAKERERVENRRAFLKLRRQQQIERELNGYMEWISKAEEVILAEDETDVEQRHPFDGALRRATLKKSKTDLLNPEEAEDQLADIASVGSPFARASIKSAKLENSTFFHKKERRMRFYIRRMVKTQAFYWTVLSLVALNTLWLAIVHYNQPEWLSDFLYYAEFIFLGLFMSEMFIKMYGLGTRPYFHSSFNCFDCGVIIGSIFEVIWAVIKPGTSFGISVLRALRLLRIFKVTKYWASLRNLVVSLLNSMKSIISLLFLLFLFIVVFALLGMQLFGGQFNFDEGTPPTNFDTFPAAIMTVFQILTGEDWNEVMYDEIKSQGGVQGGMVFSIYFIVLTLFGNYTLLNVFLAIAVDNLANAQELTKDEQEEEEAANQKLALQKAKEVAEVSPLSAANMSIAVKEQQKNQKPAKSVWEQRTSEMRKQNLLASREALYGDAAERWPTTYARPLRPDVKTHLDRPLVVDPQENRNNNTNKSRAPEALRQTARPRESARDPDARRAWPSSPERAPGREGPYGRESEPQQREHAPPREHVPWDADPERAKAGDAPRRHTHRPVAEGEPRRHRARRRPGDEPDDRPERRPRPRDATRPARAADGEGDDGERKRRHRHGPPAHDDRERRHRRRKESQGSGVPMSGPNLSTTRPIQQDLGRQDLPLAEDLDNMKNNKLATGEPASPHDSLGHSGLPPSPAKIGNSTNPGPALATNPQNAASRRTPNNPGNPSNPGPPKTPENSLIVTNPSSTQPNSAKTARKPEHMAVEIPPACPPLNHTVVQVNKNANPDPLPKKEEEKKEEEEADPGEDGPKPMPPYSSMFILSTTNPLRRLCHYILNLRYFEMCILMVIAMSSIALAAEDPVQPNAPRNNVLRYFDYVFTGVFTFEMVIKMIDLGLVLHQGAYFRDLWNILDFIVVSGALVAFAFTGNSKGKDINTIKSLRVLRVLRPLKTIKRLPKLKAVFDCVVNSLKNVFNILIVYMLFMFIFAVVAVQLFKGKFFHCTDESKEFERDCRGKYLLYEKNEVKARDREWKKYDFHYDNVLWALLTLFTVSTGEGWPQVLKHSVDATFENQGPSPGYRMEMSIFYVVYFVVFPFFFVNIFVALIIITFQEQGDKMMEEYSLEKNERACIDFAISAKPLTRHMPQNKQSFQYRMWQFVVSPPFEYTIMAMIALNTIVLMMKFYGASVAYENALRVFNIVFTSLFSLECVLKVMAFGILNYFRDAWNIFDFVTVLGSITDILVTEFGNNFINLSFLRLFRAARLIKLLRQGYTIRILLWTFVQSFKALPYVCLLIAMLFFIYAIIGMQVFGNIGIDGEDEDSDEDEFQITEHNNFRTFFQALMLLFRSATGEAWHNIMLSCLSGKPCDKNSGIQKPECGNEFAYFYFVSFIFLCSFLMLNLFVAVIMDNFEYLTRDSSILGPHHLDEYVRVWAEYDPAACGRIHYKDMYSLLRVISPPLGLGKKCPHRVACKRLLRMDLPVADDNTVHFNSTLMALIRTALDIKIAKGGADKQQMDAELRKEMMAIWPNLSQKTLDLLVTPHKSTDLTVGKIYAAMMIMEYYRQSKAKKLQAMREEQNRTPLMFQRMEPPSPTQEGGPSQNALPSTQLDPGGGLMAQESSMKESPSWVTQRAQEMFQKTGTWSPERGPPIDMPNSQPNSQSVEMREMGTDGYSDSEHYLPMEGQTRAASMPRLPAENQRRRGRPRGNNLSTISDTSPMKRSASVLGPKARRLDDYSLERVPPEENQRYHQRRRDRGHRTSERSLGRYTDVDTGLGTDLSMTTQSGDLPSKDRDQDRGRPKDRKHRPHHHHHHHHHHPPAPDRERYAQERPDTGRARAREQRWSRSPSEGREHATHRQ
T1 sequence (P54290 25-1091 partner): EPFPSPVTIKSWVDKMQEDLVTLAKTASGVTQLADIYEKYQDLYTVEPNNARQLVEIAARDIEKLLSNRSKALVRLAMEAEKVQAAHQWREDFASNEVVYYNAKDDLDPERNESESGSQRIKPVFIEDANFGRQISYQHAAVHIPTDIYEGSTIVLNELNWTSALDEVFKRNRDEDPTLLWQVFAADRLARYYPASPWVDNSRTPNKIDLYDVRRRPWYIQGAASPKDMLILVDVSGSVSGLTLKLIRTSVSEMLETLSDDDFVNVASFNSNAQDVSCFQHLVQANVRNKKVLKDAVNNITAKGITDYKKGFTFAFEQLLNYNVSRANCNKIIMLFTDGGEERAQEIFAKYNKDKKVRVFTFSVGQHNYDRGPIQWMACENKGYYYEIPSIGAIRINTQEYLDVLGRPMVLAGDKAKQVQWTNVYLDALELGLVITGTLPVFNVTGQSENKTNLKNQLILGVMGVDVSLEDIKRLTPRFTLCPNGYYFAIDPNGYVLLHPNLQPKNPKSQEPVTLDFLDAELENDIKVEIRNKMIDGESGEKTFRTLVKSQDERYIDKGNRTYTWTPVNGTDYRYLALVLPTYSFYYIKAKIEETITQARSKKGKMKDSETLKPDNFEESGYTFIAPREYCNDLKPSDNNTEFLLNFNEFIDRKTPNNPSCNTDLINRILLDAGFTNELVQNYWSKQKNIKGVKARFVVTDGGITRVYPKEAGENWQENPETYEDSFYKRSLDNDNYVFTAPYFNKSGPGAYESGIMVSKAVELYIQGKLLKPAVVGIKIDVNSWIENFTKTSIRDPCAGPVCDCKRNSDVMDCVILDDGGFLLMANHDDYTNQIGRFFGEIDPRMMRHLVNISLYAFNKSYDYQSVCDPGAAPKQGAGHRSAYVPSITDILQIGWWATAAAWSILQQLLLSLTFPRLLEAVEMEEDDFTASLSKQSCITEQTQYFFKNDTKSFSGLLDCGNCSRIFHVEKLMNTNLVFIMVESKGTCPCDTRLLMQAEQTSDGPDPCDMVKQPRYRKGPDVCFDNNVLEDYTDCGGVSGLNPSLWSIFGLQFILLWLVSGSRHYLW
T1 sequence (P54287 whole entry partner): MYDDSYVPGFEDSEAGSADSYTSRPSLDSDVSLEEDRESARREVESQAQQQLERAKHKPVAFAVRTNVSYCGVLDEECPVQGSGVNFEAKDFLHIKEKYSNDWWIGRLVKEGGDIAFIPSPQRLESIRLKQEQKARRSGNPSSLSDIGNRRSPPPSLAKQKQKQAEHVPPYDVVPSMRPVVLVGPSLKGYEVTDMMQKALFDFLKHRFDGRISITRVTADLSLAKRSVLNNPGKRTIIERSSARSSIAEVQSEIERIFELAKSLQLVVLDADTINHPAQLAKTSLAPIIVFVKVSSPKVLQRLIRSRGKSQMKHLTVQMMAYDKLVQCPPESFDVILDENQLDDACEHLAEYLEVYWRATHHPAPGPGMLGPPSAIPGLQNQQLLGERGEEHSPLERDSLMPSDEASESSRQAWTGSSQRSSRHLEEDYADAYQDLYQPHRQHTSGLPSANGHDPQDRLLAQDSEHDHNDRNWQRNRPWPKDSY

Structure (SMILES): CC(=O)N[C@@H]1CCCN(C(=O)NCCCNc2ccccn2)C1 [CBD3063, (3R)-3-acetamido-N-[3-(pyridin-2-ylamino)propyl]piperidine-1-carboxamide]
- effect on Ca2+ influx through Cav2.1 (P/Q-type) channels (current density-voltage curve, peak current density) ([1]; 20 μM overnight vs 0.1% DMSO): does not alter
- P/Q-type Ca2+ currents, activation V1/2 [1, 5]: −3.265 ± 0.824 (7) mV
- P/Q-type Ca2+ currents, activation k (slope factor) [1, 5]: 4.186 ± 0.663 (7)
- P/Q-type Ca2+ currents, inactivation V1/2 [1, 5]: −18.667 ± 1.688 (7) mV
- P/Q-type Ca2+ currents, inactivation k (slope factor) [1, 5]: −9.396 ± 1.470 (7)
- effect on Ca2+ influx through Cav3 (T-type) channels (current density-voltage curve, peak current density) ([2]; 20 μM overnight vs 0.1% DMSO): does not alter
- T-type Ca2+ currents, activation V1/2 [2, 5]: −10.982 ± 1.992 (10) mV
- T-type Ca2+ currents, activation k (slope factor) [2, 5]: 9.924 ± 1.628 (10)
- T-type Ca2+ currents, inactivation V1/2 [2, 5]: −35.122 ± 2.752 (10) mV
- T-type Ca2+ currents, inactivation k (slope factor) [2, 5]: −12.929 ± 2.490 (10)
- effect on Ca2+ influx through Cav1 (L-type) channels (current density-voltage curve, peak current density) ([3]; 20 μM overnight vs 0.1% DMSO): does not alter
- L-type Ca2+ currents, activation V1/2 [3, 5]: −2.704 ± 0.710 (7) mV
- L-type Ca2+ currents, activation k (slope factor) [3, 5]: 5.528 ± 0.615 (7)
- L-type Ca2+ currents, inactivation V1/2 [3, 5]: −10.128 ± 2.133 (7) mV
- L-type Ca2+ currents, inactivation k (slope factor) [3, 5]: −4.961 ± 1.976 (7)
- effect on Ca2+ influx through Cav2.3 (R-type) channels (current density-voltage curve, peak current density) ([4]; 20 μM overnight vs 0.1% DMSO): does not alter
- R-type Ca2+ currents, activation V1/2 [4, 5]: −4.098 ± 0.693 (11) mV
- R-type Ca2+ currents, activation k (slope factor) [4, 5]: 7.244 ± 0.579 (11)
- R-type Ca2+ currents, inactivation V1/2 [4, 5]: −16.840 ± 2.186 (11) mV
- R-type Ca2+ currents, inactivation k (slope factor) [4, 5]: −11.870 ± 1.850 (11)
- peak total calcium current density (total Ca2+ currents; +10 mV (DMSO: −93.23±10.40)): −49.84±6.17 pA/pF
- reduction in Ca2+ currents at peak current density (total Ca2+ currents; +10 mV, vs 0.1% DMSO): ~46.54%
- Total Ca2+ currents, activation V1/2 (total Ca2+ currents; mean ± SEM (n cells)): 0.971 ± 2.338 (16) mV
- Total Ca2+ currents, activation k (slope factor) (total Ca2+ currents; mean ± SEM (n cells)): 11.004 ± 2.181 (16)
- Total Ca2+ currents, inactivation V1/2 (total Ca2+ currents; mean ± SEM (n cells)): −20.944 ± 3.182 (16) mV
- Total Ca2+ currents, inactivation k (slope factor) (total Ca2+ currents; mean ± SEM (n cells)): −14.132 ± 2.880 (16)
- normalized peak total ICa2+ density (total Ca2+ currents; normalized to 0.1% DMSO control (1.00±0.06)): 0.51±0.04 ratio to DMSO control
